Reference: US3998963A, “Tertiary butyl substituted carbamoyl oxime pesticides” (priority 1975, dated 1976)
Converted amounts (≈) assume the structure as drawn.

Legend:
Assay type in all cases: in vivo
[1] = test system: bean aphid (Aphis fabae Scop.); test: Bean Aphid Foliage Spray Test; settings: foliar, 24 hour holding period, read-out: Insect LD50, Aphid
Protocol: (§1) Suspensions of the test compouns were prepared by dissolving one gram of compound in 50 milliliters of acetone in which had been dissolved 0.1 gram (10 percent of the weight of compound) of an alkylphenoxy polyethoxyethanol surfactant, as an emulsifying or dispersing agent. The resulting solution was mixed into 150 milliliters of water to give roughly 200 milliliters of a suspension containing the compound in finely divided form. The thus-prepared stock suspension contained 0.5 percent by weight of compound. The test concentrations in parts per million by weight employed in the tests described hereinbelow were obtained by appropriate dilutions of the stock suspension with water. The test procedures were as follows:
Bean Aphid Foliage Spray Test
Adults and nymphal stages of the bean aphid (Aphis fabae Scop.) reared on potted dwarf nasturtium plants at 65°-70° F. and 50-70 per cent relative humidity, constituted the test insects. For testing purposes, the number of aphids per pot was standardized to 100-150 by trimming plants containing excess aphids.
The test compounds were formulated by diluting the stock suspension with water to give a suspension containing 500 parts of test compound per million parts of final formulation.
The potted plants (one pot per compound tested) infested with 100-150 aphids, were placed on a revolving turntable and sprayed with 100 -110 milliliters of test compound formulation by use of a DeVilbiss spray gun set at 40 psig. air pressure. This application, which lasted 25 seconds, was sufficient to wet the plants to run-off. As a control, 100-110 milliliters of a water-acetone-emulsifier solution containing no test compound were also sprayed on infested plants. After spraying, the pots were placed on their sides on a sheet of white standard mimeograph paper which had peen previously ruled to facilitate counting. Temperature and humidity in the test room during the 24 hour holding period were 65°-70° F. and 50-70 per cent, respectively. Aphids which fell onto the paper and were unable to remain standing after being uprighted were considered dead. Aphids remaining on the plants were observed closely for movement and those which were unable to move the length of the body upon stimulation by prodding were considered dead. Per cent mortality was recorded for various concentration levels.

[2] = test system: Mexican bean beetle (Epilachna varivestis, Muls.); test: Mexican Bean Beetle Leaf Spray Test; settings: 72 h, 3 days, read-out: Insect LD50, Beetle
Protocol: as §1
Mexican Bean Beetle Leaf Spray Test
Fourth instar lavae of the Mexican bean beetle (Epilachna varivestis, Muls.), reared on Tendergreen bean plants at a temperature of 80°±5° F. and 50±5 per cent relative humidity, were the test insects.
The test compounds were formulated by diluting the stock suspension with water to give a suspension containing 500 parts of test compound per million parts of final formulation. Potted Tendergreen bean plants of standard height and age were placed on a revolving turntable and sprayed with 100-110 milliliters of test comound formulation by use of a DeVilbiss spray gun set at 10 psig air pressure. This application, which lasted 25 seconds, was sufficient to wet plants to run-off. As a control, 100-110 milliliters of a water-acetone-emulsifier solution containing no test compound were also sprayed on infested plants. When dry, the paired leaves were separated and each was placed in a 9 centimeter Petri dish lined with moistened filter paper. Five randomly selected larvae were introduced into each dish, and the dishes were closed. The closed dishes were labeled and held at a temperature of 80°±5° F, for 3 days. Although the larvae could easily consume the leaf within 24 to 48 hours, no more food was added. Larvae which were unable to move the length of the body, even upon stimulation, were considered dead.

[3] = test system: southern armyworm (Spodoptera eridania, (Cram.)); test: Southern Armyworm Leaf Spray Bait Test; settings: for LC50: Spodoptera eridania, 72 h, leaf spray bait, 3 days, read-out: Insect LD50, Armyworm; for (b) relative efficacy of derivative vs parent compound, Armyworm: bait, formula of footnote b is drawing 8
Protocol: as §1
Southern Armyworm Leaf Spray Bait Test
Larvae of the southern armyworm (Spodoptera eridania, (Cram.)), reared on Tendergreen bean plants at a temperature of 80°±5° F. and a relative humidity of 50±5 per cent, constituted the test insects.
The test compounds were formulated by diluting the stock suspension with water to give a suspension containing 500 parts of test compound per million parts of final formulation. Potted Tendergreen bean plants of standard height and age were placed on a revolving turntable and sprayed with 100-110 milliliters of test compound formulation by use of a DeVilbiss spray gun set at 10 psig air pressure. This application, which lasted 25 seconds, was sufficient to wet plants to run-off. As a control, 100-110 milliliters of a water-acetone-emulsifier solution containing no test compound were also sprayed on infested plants. When dry, the paired leaves were separated and each one was placed in a 9 centimeter Petri dish lined with moistened filter paper. Five randomly selected larvae were introduced into each dish and the dishes were closed. The closed dishes were labeled and held at 80°-85° F. for 3 days. Although the larvae could easily consume the whole leaf within 24 hours, no more food was added. Larvae which were unable to move the length of the body, even upon stimulation by prodding, were considered dead. Per cent mortality was recorded for various concentration levels.
(§2) In Table 1 are presented insect and rat toxicity data (bait tests) on a comparative basis of the compounds described above. […] Rat toxicity is also more meaningfully compared on the basis of molar weight LD50 values. The relative efficacy of the parent compounds as compared to the previously known derivatives and as compared to the new compounds of this invention is also shown in Table 1. The ratio of efficacy as contact poisons (immersion/bait) of the compounds tested against Armyworm and House Fly is presented in Table 2 along with the results of the phytotoxicity tests of the compounds on bean, corn, tomato and cotton.

[4] = test system: house flies (Musca domestica, L.); test: Fly Bait Test; settings: for LC50: Musca domestica, 24 hours, read-out: Insect LD50, Housefly; for (b) relative efficacy of derivative vs parent compound, Housefly: formula of footnote b is drawing 8
Protocol: as §1
Four to six day old adult house flies (Musca domestica, L.), reared according to the specifications of the Chemical Specialities Manufacturing Association (Blue Book, McNair-Dorland Co., N.Y. 1954; pages 243-244, 261) under controlled conditions of 80°±5° F. and 50±5 per cent relative humidity, were the test insects. The flies were immobilized by anesthetizing with carbon dioxide and twenty five immobilized individuals, males and females, were transferred to a cage consisting of a standard food strainer about five inches in diameter which was inverted over a wrapping-paper covered surface. The test compounds were formulated by diluting the stock suspension with a 10 per cent (by weight) sugar solution to give a suspension containing 500 parts of test compound per million parts of final formulation, by weight. Ten milliliters of the test formulation were added to a souffle cup containing a 1-inch square of an absorbent cotton pad. This bait cup was introduced and centered on the blotting paper under the food strainer prior to admitting the anesthetized flies. The caged flies were allowed to feed on the bait for 24 hours, at a temperature of 80°±5° F. and the relative humidity of 50±5 per cent.
as §2

SMILES	LC50 [1]	LC50 [2]	LC50 [3]	(b) relative efficacy of derivative vs parent compound, Armyworm [3]	LC50 [4]	(b) relative efficacy of derivative vs parent compound, Housefly [4]
CC(=NOC(=O)N(C)Sc1ccc(C(C)(C)C)cc1)SC(C)C [Compound 9, O-[N-Methyl-N-[4-(t-Butylphenyl)sulfenyl]carbamoyl] S-Isopropyl Thiolacetohydroximate]	9 µg/mL (≈ 25.4 µM)	30 µg/mL (≈ 84.6 µM)	19 µg/mL (≈ 53.6 µM)	1.6	50 µg/mL (≈ 141 µM)	0.43
CCSC(C)=NOC(=O)NC [Compound 3]	12 µg/mL (≈ 68.1 µM)	38 µg/mL (≈ 216 µM)	11 µg/mL (≈ 62.4 µM)		3 µg/mL (≈ 17 µM)	
CSC(C)=NOC(=O)N(C)Sc1ccc(C(C)(C)C)cc1 [Compound 8, O-[N-Methyl-N-[4-(t-butylphenyl)sulfenyl]carbamoyl] S-Methyl Acetothiolhydroximate]	2.5 µg/mL (≈ 7.66 µM)	20 µg/mL (≈ 61.3 µM)	4 µg/mL (≈ 12.3 µM)	5.7	17 µg/mL (≈ 52.1 µM)	0.4
CC(=NOC(=O)N(C)Sc1ccc(Cl)cc1)SC(C)C [Compound 5]	3 µg/mL (≈ 9.01 µM)	50 µg/mL (≈ 150 µM)	30 µg/mL (≈ 90.1 µM)	1.0	50 µg/mL (≈ 150 µM)	0.4
CNC(=O)ON=C(C)SC [Compound 1, O-(methylcarbamoyl) S-methyl acetothiolhydroximate]	4 µg/mL (≈ 24.7 µM)	70 µg/mL (≈ 432 µM)	11 µg/mL (≈ 67.8 µM)		4 µg/mL (≈ 24.7 µM)	
CSC(C)=NOC(=O)N(C)Sc1ccc(C)cc1 [Compound 6]	5 µg/mL (≈ 17.6 µM)	15 µg/mL (≈ 52.7 µM)	6 µg/mL (≈ 21.1 µM)	3.2	2 µg/mL (≈ 7.03 µM)	
CC(=NOC(=O)N(C)Sc1ccc(C)cc1)SC(C)C [Compound 7]	5 µg/mL (≈ 16 µM)	15 µg/mL (≈ 48 µM)	12 µg/mL (≈ 38.4 µM)	2.3	50 µg/mL (≈ 160 µM)	0.38
CSC(C)=NOC(=O)N(C)Sc1ccc(Cl)cc1 [Compound 4]	2 µg/mL (≈ 6.56 µM)	70 µg/mL (≈ 230 µM)	10 µg/mL (≈ 32.8 µM)	2.1	8 µg/mL (≈ 26.2 µM)	
CNC(=O)ON=C(C)SC(C)C [Compound 2]	25 µg/mL (≈ 131 µM)	30 µg/mL (≈ 158 µM)	17 µg/mL (≈ 89.3 µM)		11 µg/mL (≈ 57.8 µM)	
